Results published in US8748180B2, “Microfluidic device for pharmacokinetic-pharmacodynamic study of drugs and uses thereof” (Cornell University, priority 2009, dated 2014).

Key:
[1] = system: HepG2/C3A, HCT-116 and Kasumi-1 cells; experiment: μCCA viability of three cell lines, 5-FU alone vs 5-FU plus uracil (uracil as modulator)
Method: The device was assembled by sandwiching a cell culture chamber layer and a fluidic channel layer between an aluminum bottom frame and a PLEXIGLAS® top frame. A silicone gasket and a polycarbonate base were added to ensure better sealing. […] The device was placed on a rocking platform, set to change direction at approximately every 3 min.
(§2) The whole system was placed inside a cell culture incubator with 5% CO2. After a specified amount of time, the device was dissembled and cells were retrieved by dissolving the alginate in a dissolving buffer (55 mM sodium citrate, 30 mM EDTA, 0.15M NaCl) for 30 min at 37° C., or from […] ® by dissolving in DPBS with 5 mM EDTA solution at 4° C. Cell viability was determined by Trypan-blue exclusion assay using a hemocytometer. At least triplicates were done for each data point.
The effect of uracil as a modulator of 5-FU toxicity was tested by comparing the responses of cells to 5-FU plus uracil and 5-FU alone. […] Cells were also encapsulated in a different hydrogel, […] ®, in a μCCA.

HepG2/C3A [2] = experiment: Toxicity in three-chamber μCCA (dynamic conditions), Trypan-blue viability, PK-PD model fit; conditions: both static and dynamic conditions; lower Kmax or higher KC50
Method: (§3) The device was placed on a rocking platform, set to change direction at approximately every 3 min.
as §2
(§4) An integrated PK-PD model was developed by constructing a PK and PD model separately, and then combining the two. A PK model has the same layout of compartments as a μCCA device. A PD model is integrated into each compartment, describing the kinetics of cell death in each organ. To construct a PK model for a μCCA, mass balance equations describing the flow in, flow out, and metabolism were set up for each compartment, and the ordinary differential equations (ODEs) were solved numerically. Solving the equations required several parameters, such as physiological parameters (flow rate and size of chambers) and enzyme kinetic parameters for the metabolism of 5-FU and uracil, which are summarized in Table 1. […]

[3] = system: dihydropyrimidine dehydrogenase (DPD); conditions: PK model parameter; calculated from rate of metabolism in a rat and reported liver protein content and cell number; cited from earlier work
HCT-116 [4] = experiment: Toxicity in three-chamber μCCA (dynamic conditions), Trypan-blue viability, PK-PD model fit; conditions: three days
Method: as §3, §2, §4

[5] = previous clinical findings; cited from earlier work
Kasumi-1 [6] = experiment: Toxicity in three-chamber μCCA (dynamic conditions), Trypan-blue viability, PK-PD model fit; conditions: three days
Method: as §3, §2, §4

HepG2/C3A [7] = experiment: Toxicity experiment in static conditions, hydrogel-encapsulated cells, Trypan-blue viability, PD model fit; type: cell-based; conditions: three days
Method: (§1) For static condition experiment, the same silicone gaskets were prepared on a glass slide, similar to the μCCA. Cells were seeded into the holes, encapsulated in hydrogel, and […] of cell culture medium were placed on top. This volume is same as the volume of medium placed in the reservoir of a μCCA. Therefore, cells in static conditions are essentially the same as the cells in a μCCA, except that the device was not assembled with the channel layer, and cells were immersed in liquid medium. Cell viability was assessed using the same method as a μCCA.

HCT-116 [8] = experiment: as above; type: cell-based; conditions: Homo sapiens, HCT-116, 72 h, 5-FU 0, 0.1, 0.2, 0.5 mM, three days, read-out: KC50 (drug concentration where half of the maximum rate is observed), fitted PD parameter
Method: as §1

Kasumi-1 [9] = experiment: as above; type: cell-based; conditions: Homo sapiens, Kasumi 1, 72 h, 5-FU 0, 0.1, 0.2, 0.5 mM, three days, read-out: KC50 (drug concentration where half of the maximum rate is observed), fitted PD parameter
Method: as §1

Row | Structure (SMILES) | Sensitivity of cells to 5-FU in dynamic conditions versus static conditions [1] | Resistance to 5-FU compared with other two cell types (HepG2/C3A [2]) | Maximum rate of metabolism (Vm) [3] | Sensitivity to 5-FU treatment compared with hepatoma (HepG2/C3A) cell line (HCT-116 [4]) | Dose-limiting toxicity [5] | Sensitivity to 5-FU treatment compared with hepatoma (HepG2/C3A) cell line (Kasumi-1 [6]) | EC50 (HepG2/C3A [7]; HepG2/C3A, 72 h, 5-FU 0, 0.1, 0.2, 0.5 mM, read-out: KC50 (drug concentration where half of the maximum rate is observed), fitted PD parameter) | Drop in viability compared with other cell types (HepG2/C3A [7]) | EC50 (HCT-116 [8]) | EC50 (Kasumi-1 [9])
1 | O=c1[nH]cc(F)c(=O)[nH]1 [5-FU, 5-fluorouracil] | more sensitive | most resistant | 2385 nmol/min/mL | much more sensitive | hematological toxicity | much more sensitive | 5.52 mM | slower drop in the viability | 8.61 mM | 7.41 mM
2 | O=c1cc[nH]c(=O)[nH]1 [uracil] |  |  | 1695 nmol/min/mL |  |  |  |  |  |  | 
